Results as given in PubChem BioAssay (NCI).
“And” between values parts separate entries of the source, which are not always exact repeats. Equal values may be shown once.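 Results reflect a 48-hour exposure of cells in 96-well plates to compound at five concentrations. GI50: concentration for 50% inhibition of growth. TGI: total growth inhibition.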

Experiments:
Assay in all cases: NCI-60 cell line screen, 48 h
[1] = tested on: 786-0 renal
[2] = tested on: SF-295 CNS
[3] = tested on: OVCAR-4 ovarian
[4] = tested on: PC-3 prostate
[5] = tested on: UACC-257 melanoma
[6] = tested on: MDA-MB-435
[7] = tested on: OVCAR-3 ovarian
[8] = tested on: HOP-62 NSCLC
[9] = tested on: MOLT-4 leukemia
[10] = tested on: ACHN renal

Row | SMILES | GI50 [1] | TGI [1] | GI50 [2] | TGI [2] | GI50 [3] | TGI [3] | GI50 [4] | TGI [4] | GI50 [5] | TGI [5] | GI50 [6] | TGI [6] | GI50 [7] | TGI [7] | GI50 [8] | TGI [8] | GI50 [9] | TGI [9] | GI50 [10] | TGI [10]
1 | O=C(NCCNC1=CC(=O)c2nc3ccccc3c3ccnc1c23)c1cnccn1 | 36.7 µM | > 100 µM | 18.9 µM | > 100 µM | 83.7 µM | > 100 µM | 13.1 µM | > 100 µM | 49.3 µM | > 100 µM | 14.5 µM | 63.2 µM | 2.42 µM | 19.1 µM | 18.9 µM | > 100 µM | 35.7 µM | > 100 µM | 32.4 µM | > 100 µM
2 | COc1cc([C@H]2c3cc4c(cc3[C@H](NCc3ccc(F)cc3)C3COC(=O)[C@H]32)OCO4)cc(OC)c1O (stereo partly drawn) |  | 5.48 µM |  | 17.9 µM |  | > 100 µM |  |  |  | 43.6 µM |  |  |  | 29.3 µM |  | 3.82 µM |  | 6.42 µM |  | 4.34 µM
3 | CC(C)(C)c1cnc(CSc2cnc(NC(=O)C3CCNCC3)s2)o1 | 0.47 µM and 0.698 µM | > 47.7 µM | 0.185 µM and 0.602 µM | > 10 µM | 0.273 µM and 0.281 µM | 2.67 µM and > 8.21 µM | 0.21 µM and 0.19 µM | 2.81 µM and > 9 µM | 0.221 µM and 0.317 µM | 0.634 µM and 1.74 µM | 0.189 µM and 0.232 µM | 0.905 µM and 1.07 µM | 0.223 µM and 0.181 µM | 3.61 µM and > 2.95 µM | 0.282 µM and 0.343 µM | 7.06 µM and > 8.87 µM | 0.351 µM and 0.248 µM | 17.3 µM and > 2.99 µM | 2.12 µM and 2.14 µM | > 52.1 µM
4 | O=C(Nc1c(Cl)cc([N+](=O)[O-])cc1Cl)C(=O)C(C(=O)c1ccncc1)C1OC(=O)c2ccccc21 (stereo not drawn) |  | > 100 µM |  | > 100 µM |  | > 100 µM |  |  |  | > 100 µM |  |  |  | > 100 µM |  | > 100 µM |  | > 100 µM |  | > 100 µM
5 | COc1cc2c(c(OC)c1OC)-c1ccc(SC)c(=O)cc1C(CC(=O)Oc1ccccc1F)C2 (stereo not drawn) |  | > 7.5 µM |  | > 7.5 µM |  | > 7.5 µM |  |  |  |  |  |  |  | 0.0272 µM |  | > 7.5 µM |  | > 7.5 µM |  | > 7.5 µM
6 | C#CCN(CCCOc1ccc(Cl)cc1Cl)CCCSC(=O)CCCCCN1/C(=C\C=C2/CCCC(/C=C/C3=[N+](CCCCCC(=O)[O-])c4ccccc4C3(C)C)=C2Cl)C(C)(C)c2ccccc21 | 1.78 µM | 3.5 µM | 1.91 µM | 4.06 µM | 2.02 µM | 6.72 µM | 1.69 µM | 4.01 µM | 1.8 µM | 4.03 µM | 1.46 µM | 3.15 µM | 1.45 µM | 3.31 µM | 2.1 µM | 5.72 µM | 1.48 µM | > 100 µM | 2.65 µM | 7.5 µM
7 | COc1ccc(C2NC(c3ccc(OC)cc3)C(C)C(=O)C2C)cc1 (stereo not drawn) |  | > 100 µM |  | > 100 µM |  | > 100 µM |  |  |  | > 100 µM |  |  |  | > 100 µM |  | > 100 µM |  | > 100 µM |  | > 100 µM
8 | O=C(Cc1csc2nc(-c3ccc(Br)cc3)cn12)N/N=C/c1ccccc1O | 4.68 µM | 17.7 µM | 2.73 µM | 9.34 µM |  |  | 4.28 µM | 16.7 µM | 3.68 µM | 11.6 µM | 3.33 µM | 13.6 µM | 3.22 µM | 15.1 µM | 3.88 µM | 14.9 µM | 2.35 µM | 10.8 µM | 1.57 µM | 6.3 µM
9 | Cc1cc(N(CCC#N)CCC#N)ccc1/C=C1N=C(/C=C\c2ccccc2)N(c2ccc(C(=O)O)cc2)C\1=O |  | > 100 µM |  | > 100 µM |  | > 100 µM |  |  |  | > 100 µM |  |  |  | > 100 µM |  | > 100 µM |  | > 100 µM |  | > 100 µM
10 | O=C(/C=N/O)Nc1cccc(Cl)c1I |  | > 100 µM |  | > 100 µM |  | > 100 µM |  |  |  | > 100 µM |  |  |  | > 100 µM |  | > 100 µM |  | > 100 µM |  | > 100 µM
11 | Cc1ccc(-n2cc(/C(N)=N/O)c3ccccc3c2=O)cc1 |  | > 100 µM |  | > 100 µM |  |  |  |  |  | > 100 µM |  |  |  | > 100 µM |  | > 100 µM |  | > 100 µM |  | > 100 µM
12 | c1ccc2c(c1)n1nnnc1c1nnnn21 |  | > 100 µM |  | > 100 µM |  | > 100 µM |  |  |  | > 100 µM |  |  |  | > 100 µM |  | > 100 µM |  | > 100 µM |  | > 100 µM
13 | COc1cc(-c2ccc[nH]2)[nH]c1/C=C1\N=C(C)C(C(=O)NC(C)C)=C1C | 2.9 µM | 11.7 µM | 2.9 µM | 11.4 µM |  |  | 4.67 µM | 19.3 µM | 2.54 µM | 6.42 µM | 4.51 µM | 19.5 µM | 3.03 µM | 14.2 µM | 3.77 µM | 15.8 µM | 2.47 µM | 24 µM | 3.59 µM | 13.3 µM
14 | COc1cc(COC(=O)N(C)[C@@H](Cc2ccccc2)C(=O)O)c([N+](=O)[O-])cc1OC |  | > 100 µM |  | > 100 µM |  |  |  | > 100 µM |  | > 100 µM |  | > 100 µM |  | > 100 µM |  | > 100 µM |  | > 100 µM |  | > 100 µM
15 | O=S1(=O)CS(=O)(=O)OCCCCCO1 |  | > 100 µM |  |  |  | > 100 µM |  |  |  | > 100 µM |  |  |  |  |  |  |  |  |  | > 100 µM
16 | CC1(C)N=C(N)N=C(N)N1c1ccc(CCCCCCc2ccc(S(=O)(=O)F)cc2)cc1 |  | 16.5 µM |  | 22 µM |  | > 100 µM |  | 15.4 µM |  |  |  | 21.2 µM |  | 32.4 µM |  | 15.8 µM |  |  |  | 14.4 µM
17 | CCOC(=O)c1cnc2c(ccc3ncccc32)c1OCC |  | > 100 µM |  |  |  | > 100 µM |  |  |  | > 100 µM |  |  |  | > 100 µM |  | > 100 µM |  | > 100 µM |  | > 100 µM
18 | O=C(CC/C(CC(=O)c1ccc(Cl)cc1)=N\O)Nc1cccc(Cl)c1 |  | > 100 µM |  | > 100 µM |  | > 100 µM |  |  |  | > 100 µM |  |  |  | > 100 µM |  | > 100 µM |  | > 100 µM |  | > 100 µM
19 | COc1ccc(/C(C#N)=C2/O/C(=N/N)C(c3ccc(OC)c(OC)c3)C2=O)cc1OC (stereo not drawn) |  | > 100 µM |  | > 100 µM |  |  |  |  |  | > 100 µM |  |  |  | > 100 µM |  |  |  | > 100 µM |  | > 100 µM
20 | Cc1ccccc1NC(=O)C(=O)CC(=O)c1sc(-n2nc(-c3ccccc3)cc2-c2ccccc2)nc1C |  | > 100 µM |  | > 100 µM |  | > 100 µM |  |  |  | > 100 µM |  |  |  | > 100 µM |  | > 100 µM |  | > 100 µM |  | > 100 µM
